Experimental data reported in US20180353462A1, “[…] AGENTS […] FLAVONOID DERIVATIVES TARGETING KINASES, SIRTUINS AND ONCOGENIC AGENTS FOR THE TREATMENT OF CANCERS” (priority 2015, published 2018).

target: T1, PDGFRB (Homo sapiens, UniProt P09619); test: Kinase competition binding assay, PDGFRB; conditions: Table 1 kinase panel
T1 construct: catalytic domain constructs for large multi-domain kinases; T7 phage fusion (most assays) or DNA tag for qPCR (HEK-293-made kinases); made in house
Description: (§1) Cannabis flavonoids and their analogs were subjected to kinase inhibition assay. The compounds were first screened at a single concentration of 10 μM in the primary assay. […]. To determine the kd or IC50 values, competition binding assays were established, authenticated and executed as described previously. Fabian et al., “A Small Molecule-Kinase Interaction Map For Clinical Kinase Inhibitors.”, Nat Biotechnol, 23(3):329-36, Epub (2005). See also, Karaman et al., “A Quantitative Analysis Of Kinase Inhibitor Selectivity”, Nat. Biotechnol. […] For most assays, kinases were fused to T7 phage strains (Fabian, supra) and for the other assays, kinases were produced in HEK-293 cells after which they were tagged with DNA for quantitative PCR detection. In general, full-length constructs were used for small, single domain kinases, and catalytic domain constructs for large multi-domain kinases. The binding assays utilized streptavidin-coated magnetic beads treated with biotinylated small molecule ligands for 30 minutes at room temperature which generated affinity resins for the kinase assays. The liganded beads were blocked with excess biotin and washed with blocking buffer (SeaBlock (Pierce), 1% BSA, 0.05% Tween 20, 1 mM DTT) to remove unbound ligand and to reduce non-specific phage binding. […] Test compounds were prepared as 40× stocks in 100% DMSO and diluted directly into the assay (Final DMSO concentration=2.5%). All reactions were performed in polypropylene 384-well plates in a final volume of 0.04 ml. […] The beads were then re-suspended in elution buffer (1×PBS, 0.05% Tween 20, 0.5 μM non-biotinylated affinity ligand) and incubated at room temperature with shaking for 30 minutes. The kinase concentration in the eluates was measured by quantitative PCR. An illustration of the kinase interaction process is presented below. Kd/IC50 values were determined using a standard dose response curve using the hill equation. Curves were fitted using a non-linear least square fit with the Levenberg-Marquardt algorithm.
(§2) The compound(s) were screened at 10 μM and results for primary screen binding interactions are reported as ‘% Ctrl’, where lower numbers indicate stronger hits in the matrix.

T1 sequence (P09619 600-962 limits assumed): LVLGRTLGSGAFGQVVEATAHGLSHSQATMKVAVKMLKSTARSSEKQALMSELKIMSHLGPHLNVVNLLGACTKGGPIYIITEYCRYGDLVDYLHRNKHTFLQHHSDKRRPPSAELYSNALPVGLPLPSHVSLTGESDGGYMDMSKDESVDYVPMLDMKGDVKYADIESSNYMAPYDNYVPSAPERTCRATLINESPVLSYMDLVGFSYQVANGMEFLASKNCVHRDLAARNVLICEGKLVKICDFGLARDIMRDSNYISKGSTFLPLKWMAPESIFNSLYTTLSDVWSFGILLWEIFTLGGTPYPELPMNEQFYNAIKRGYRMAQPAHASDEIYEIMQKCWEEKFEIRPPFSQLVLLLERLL

| Structure (SMILES) | IC50 [nM] |
| --- | --- |
| COc1cc(-c2cc(=O)c3c(O)cc(O)c(CC=C(C)C)c3o2)ccc1O [FBL-03G] | 3310 |
| COc1cc(-c2cc(=O)c3c(O)c(C/C=C(\C)CCC=C(C)C)c(O)cc3o2)ccc1O [FBL-03A] | 330 |
| COc1ccc(-c2cc(=O)c3c(O)c(C/C=C(\C)CCC=C(C)C)c(O)cc3o2)cc1OC [FBL-03D] | > 30000 |

target: T2, FGR (Homo sapiens, UniProt P09769); test: Kinase competition binding assay, FGR; conditions: Table 1 kinase panel
T2 construct: made in house
T2 sequence (P09769 whole entry): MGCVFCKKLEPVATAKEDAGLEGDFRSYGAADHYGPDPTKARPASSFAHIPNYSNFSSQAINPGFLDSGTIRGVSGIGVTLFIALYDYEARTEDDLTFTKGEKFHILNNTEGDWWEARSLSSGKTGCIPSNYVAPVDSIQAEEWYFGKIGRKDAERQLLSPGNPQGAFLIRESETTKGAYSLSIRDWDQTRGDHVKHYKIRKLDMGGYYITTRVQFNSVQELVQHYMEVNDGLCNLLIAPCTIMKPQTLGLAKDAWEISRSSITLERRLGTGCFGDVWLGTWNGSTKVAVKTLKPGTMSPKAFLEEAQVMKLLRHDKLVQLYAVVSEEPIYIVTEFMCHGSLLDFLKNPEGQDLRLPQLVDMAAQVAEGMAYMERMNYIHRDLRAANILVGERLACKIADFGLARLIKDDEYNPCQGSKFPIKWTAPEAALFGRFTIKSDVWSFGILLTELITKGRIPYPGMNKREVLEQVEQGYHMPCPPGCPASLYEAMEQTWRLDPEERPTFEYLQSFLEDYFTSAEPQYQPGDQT
Description: as §1, §2

| Structure (SMILES) | IC50 [nM] |
| --- | --- |
| COc1cc(-c2cc(=O)c3c(O)cc(O)c(CC=C(C)C)c3o2)ccc1O [FBL-03G] | 880 |
| COc1cc(-c2cc(=O)c3c(O)c(C/C=C(\C)CCC=C(C)C)c(O)cc3o2)ccc1O [FBL-03A] | > 20000 |
| COc1ccc(-c2cc(=O)c3c(O)c(C/C=C(\C)CCC=C(C)C)c(O)cc3o2)cc1OC [FBL-03D] | > 30000 |

target: T3, KIT(L576P) (Homo sapiens, UniProt P10721, L576P); test: Kinase competition binding assay, KIT(L576P); conditions: Table 1 kinase panel
T3 construct: made in house
T3 sequence (P10721 26-976 L576P): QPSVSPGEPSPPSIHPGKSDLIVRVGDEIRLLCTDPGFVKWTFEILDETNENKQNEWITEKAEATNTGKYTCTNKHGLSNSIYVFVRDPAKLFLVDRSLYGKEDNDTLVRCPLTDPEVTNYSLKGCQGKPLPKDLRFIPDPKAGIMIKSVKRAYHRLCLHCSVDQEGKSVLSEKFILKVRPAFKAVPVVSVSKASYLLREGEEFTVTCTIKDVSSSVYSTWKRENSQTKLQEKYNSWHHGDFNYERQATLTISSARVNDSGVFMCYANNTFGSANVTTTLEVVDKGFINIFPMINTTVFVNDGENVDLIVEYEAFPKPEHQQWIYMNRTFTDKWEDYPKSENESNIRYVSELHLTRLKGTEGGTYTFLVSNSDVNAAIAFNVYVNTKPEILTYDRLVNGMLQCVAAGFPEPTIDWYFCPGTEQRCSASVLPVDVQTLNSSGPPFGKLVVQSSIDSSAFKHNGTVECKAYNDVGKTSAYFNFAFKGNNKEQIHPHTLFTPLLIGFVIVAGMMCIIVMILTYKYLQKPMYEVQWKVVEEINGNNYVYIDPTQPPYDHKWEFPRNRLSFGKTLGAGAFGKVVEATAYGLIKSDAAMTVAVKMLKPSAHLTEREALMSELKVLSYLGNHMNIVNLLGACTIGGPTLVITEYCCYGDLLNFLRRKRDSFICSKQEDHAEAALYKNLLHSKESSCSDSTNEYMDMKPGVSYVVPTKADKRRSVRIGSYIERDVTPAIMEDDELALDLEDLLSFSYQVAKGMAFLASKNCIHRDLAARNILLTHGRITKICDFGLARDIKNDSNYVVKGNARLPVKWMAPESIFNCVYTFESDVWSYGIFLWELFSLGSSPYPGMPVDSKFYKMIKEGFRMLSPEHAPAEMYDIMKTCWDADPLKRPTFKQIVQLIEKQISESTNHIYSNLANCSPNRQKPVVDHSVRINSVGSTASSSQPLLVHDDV
Description: as §1, §2

| Structure (SMILES) | IC50 [nM] |
| --- | --- |
| COc1cc(-c2cc(=O)c3c(O)cc(O)c(CC=C(C)C)c3o2)ccc1O [FBL-03G] | < 1000 |
| COc1cc(-c2cc(=O)c3c(O)c(C/C=C(\C)CCC=C(C)C)c(O)cc3o2)ccc1O [FBL-03A] | 180 |
| COc1ccc(-c2cc(=O)c3c(O)c(C/C=C(\C)CCC=C(C)C)c(O)cc3o2)cc1OC [FBL-03D] | > 30000 |

target: T4, MEK5 (Homo sapiens, UniProt Q13163); test: Kinase competition binding assay, MEK5; conditions: Table 1 kinase panel
T4 construct: made in house
T4 sequence (Q13163 1-448): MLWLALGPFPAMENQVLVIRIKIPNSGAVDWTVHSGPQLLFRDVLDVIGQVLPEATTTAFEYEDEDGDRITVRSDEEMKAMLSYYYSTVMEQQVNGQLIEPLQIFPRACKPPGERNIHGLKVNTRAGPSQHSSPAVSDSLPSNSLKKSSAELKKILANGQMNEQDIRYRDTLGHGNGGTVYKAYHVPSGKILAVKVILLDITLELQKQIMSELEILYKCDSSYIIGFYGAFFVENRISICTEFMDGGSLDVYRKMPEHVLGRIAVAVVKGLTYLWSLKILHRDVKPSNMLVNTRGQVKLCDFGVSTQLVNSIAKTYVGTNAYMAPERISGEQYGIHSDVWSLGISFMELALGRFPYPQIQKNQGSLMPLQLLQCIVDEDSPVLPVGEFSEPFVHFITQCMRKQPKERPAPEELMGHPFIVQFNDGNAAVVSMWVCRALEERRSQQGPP
Description: as §1, §2

| Structure (SMILES) | IC50 [nM] |
| --- | --- |
| COc1cc(-c2cc(=O)c3c(O)cc(O)c(CC=C(C)C)c3o2)ccc1O [FBL-03G] | > 1000 |
| COc1cc(-c2cc(=O)c3c(O)c(C/C=C(\C)CCC=C(C)C)c(O)cc3o2)ccc1O [FBL-03A] | 140 |
| COc1ccc(-c2cc(=O)c3c(O)c(C/C=C(\C)CCC=C(C)C)c(O)cc3o2)cc1OC [FBL-03D] | > 30000 |

target: T5, PDGFRa(T674I) (Homo sapiens, UniProt P16234, T674I); test: Kinase competition binding assay, PDGFRa(T674I); conditions: Table 1 kinase panel
T5 construct: catalytic domain constructs for large multi-domain kinases; T7 phage fusion (most assays) or DNA tag for qPCR (HEK-293-made kinases); made in house
T5 sequence (P16234 593-954 T674I limits assumed): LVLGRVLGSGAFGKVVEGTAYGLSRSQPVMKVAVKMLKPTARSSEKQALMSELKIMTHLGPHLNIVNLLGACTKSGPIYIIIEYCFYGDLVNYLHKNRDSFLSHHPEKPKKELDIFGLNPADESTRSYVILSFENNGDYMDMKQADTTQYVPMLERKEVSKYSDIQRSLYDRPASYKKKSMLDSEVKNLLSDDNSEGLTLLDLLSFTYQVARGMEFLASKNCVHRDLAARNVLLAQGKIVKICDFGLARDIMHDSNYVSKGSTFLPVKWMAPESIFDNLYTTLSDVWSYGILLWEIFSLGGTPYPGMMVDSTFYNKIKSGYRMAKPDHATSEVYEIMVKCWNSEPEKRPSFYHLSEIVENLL
Description: as §1, §2

| Structure (SMILES) | IC50 [nM] |
| --- | --- |
| COc1cc(-c2cc(=O)c3c(O)cc(O)c(CC=C(C)C)c3o2)ccc1O [FBL-03G] | 2360 |
| COc1ccc(-c2cc(=O)c3c(O)c(C/C=C(\C)CCC=C(C)C)c(O)cc3o2)cc1OC [FBL-03D] | > 30000 |

target: T6, KIT(V559D) (Homo sapiens, UniProt P10721, V559D); test: Kinase competition binding assay, KIT(V559D); conditions: Table 1 kinase panel
T6 construct: made in house
T6 sequence (P10721 26-976 V559D): as the sequence (P10721 26-976 L576P) above, with V534D, P551L counted along it
Description: as §1, §2

| Structure (SMILES) | IC50 [nM] |
| --- | --- |
| COc1cc(-c2cc(=O)c3c(O)cc(O)c(CC=C(C)C)c3o2)ccc1O [FBL-03G] | < 1000 |
| COc1cc(-c2cc(=O)c3c(O)c(C/C=C(\C)CCC=C(C)C)c(O)cc3o2)ccc1O [FBL-03A] | 200 |
| COc1ccc(-c2cc(=O)c3c(O)c(C/C=C(\C)CCC=C(C)C)c(O)cc3o2)cc1OC [FBL-03D] | > 30000 |

target: T7, DYRK1/DYRK1A (Homo sapiens, UniProt Q13627); test: Kinase competition binding assay, DYRK1/DYRK1A; conditions: Table 1 kinase panel
T7 construct: made in house
Description: as §1, §2

| Structure (SMILES) | IC50 [nM] |
| --- | --- |
| COc1cc(-c2cc(=O)c3c(O)cc(O)c(CC=C(C)C)c3o2)ccc1O [FBL-03G] | 36 |
| COc1cc(-c2cc(=O)c3c(O)c(C/C=C(\C)CCC=C(C)C)c(O)cc3o2)ccc1O [FBL-03A] | > 20000 |
| COc1ccc(-c2cc(=O)c3c(O)c(C/C=C(\C)CCC=C(C)C)c(O)cc3o2)cc1OC [FBL-03D] | > 30000 |

target: T8, RIOK1 (Homo sapiens, UniProt Q9BRS2); test: Kinase competition binding assay, RIOK1; conditions: Table 1 kinase panel
T8 construct: T7 phage fusion (most assays) or DNA tag for qPCR (HEK-293-made kinases); made in house
T8 sequence (Q9BRS2 1-568): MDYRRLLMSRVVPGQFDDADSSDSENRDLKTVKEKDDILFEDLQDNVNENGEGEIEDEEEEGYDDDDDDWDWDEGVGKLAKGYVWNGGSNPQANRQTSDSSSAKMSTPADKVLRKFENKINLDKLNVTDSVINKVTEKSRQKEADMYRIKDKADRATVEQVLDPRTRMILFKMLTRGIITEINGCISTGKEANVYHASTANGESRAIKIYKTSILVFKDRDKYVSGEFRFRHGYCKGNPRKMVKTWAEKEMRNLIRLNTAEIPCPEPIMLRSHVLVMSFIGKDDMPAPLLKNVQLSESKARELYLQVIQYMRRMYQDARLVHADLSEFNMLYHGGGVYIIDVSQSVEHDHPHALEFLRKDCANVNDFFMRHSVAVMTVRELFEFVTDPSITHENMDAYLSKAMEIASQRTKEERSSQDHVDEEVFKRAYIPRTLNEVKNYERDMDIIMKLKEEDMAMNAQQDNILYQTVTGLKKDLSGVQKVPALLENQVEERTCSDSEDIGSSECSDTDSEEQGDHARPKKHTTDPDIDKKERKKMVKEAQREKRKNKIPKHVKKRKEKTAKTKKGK
Description: as §1, §2

| Structure (SMILES) | IC50 [nM] |
| --- | --- |
| COc1cc(-c2cc(=O)c3c(O)cc(O)c(CC=C(C)C)c3o2)ccc1O [FBL-03G] | > 20000 |
| COc1cc(-c2cc(=O)c3c(O)c(C/C=C(\C)CCC=C(C)C)c(O)cc3o2)ccc1O [FBL-03A] | > 20000 |
| COc1ccc(-c2cc(=O)c3c(O)c(C/C=C(\C)CCC=C(C)C)c(O)cc3o2)cc1OC [FBL-03D] | > 30000 |

target: T9, c-Kit(Y823D) (Homo sapiens, UniProt P10721, Y823D); test: Kinase competition binding assay, c-Kit(Y823D); conditions: Table 1 kinase panel
T9 construct: made in house
T9 sequence (P10721 26-976 Y823D): as the sequence (P10721 26-976 L576P) above, with P551L, Y798D counted along it
Description: as §1, §2

| Structure (SMILES) | IC50 [nM] |
| --- | --- |
| COc1cc(-c2cc(=O)c3c(O)cc(O)c(CC=C(C)C)c3o2)ccc1O [FBL-03G] | 84 |
| COc1cc(-c2cc(=O)c3c(O)c(C/C=C(\C)CCC=C(C)C)c(O)cc3o2)ccc1O [FBL-03A] | > 20000 |
| COc1ccc(-c2cc(=O)c3c(O)c(C/C=C(\C)CCC=C(C)C)c(O)cc3o2)cc1OC [FBL-03D] | > 30000 |

target: T10, DRAK2 (Homo sapiens, UniProt O94768); test: Kinase competition binding assay, DRAK2; conditions: Table 1 kinase panel
T10 construct: made in house
T10 sequence (O94768 1-372): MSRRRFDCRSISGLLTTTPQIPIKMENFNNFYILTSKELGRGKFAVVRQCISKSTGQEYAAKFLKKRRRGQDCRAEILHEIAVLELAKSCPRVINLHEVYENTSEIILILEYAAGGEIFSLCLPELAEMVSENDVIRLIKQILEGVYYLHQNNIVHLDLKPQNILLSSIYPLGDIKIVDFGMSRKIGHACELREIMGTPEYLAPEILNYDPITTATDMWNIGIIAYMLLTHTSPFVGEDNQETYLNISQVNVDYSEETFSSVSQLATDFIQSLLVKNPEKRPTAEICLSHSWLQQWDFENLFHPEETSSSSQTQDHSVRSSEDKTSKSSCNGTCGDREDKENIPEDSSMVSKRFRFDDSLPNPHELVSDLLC
Description: as §1, §2

| Structure (SMILES) | IC50 [nM] |
| --- | --- |
| COc1cc(-c2cc(=O)c3c(O)cc(O)c(CC=C(C)C)c3o2)ccc1O [FBL-03G] | > 10000 |
| COc1cc(-c2cc(=O)c3c(O)c(C/C=C(\C)CCC=C(C)C)c(O)cc3o2)ccc1O [FBL-03A] | > 20000 |
| COc1ccc(-c2cc(=O)c3c(O)c(C/C=C(\C)CCC=C(C)C)c(O)cc3o2)cc1OC [FBL-03D] | > 30000 |

target: T11, PIK3CA(1800L) (Homo sapiens, UniProt P42336, I800L); test: Kinase competition binding assay, PIK3CA(1800L); conditions: Table 1 kinase panel
T11 construct: T7 phage fusion (most assays) or DNA tag for qPCR (HEK-293-made kinases); made in house
T11 sequence (P42336 whole entry I800L, the tested form may be a part): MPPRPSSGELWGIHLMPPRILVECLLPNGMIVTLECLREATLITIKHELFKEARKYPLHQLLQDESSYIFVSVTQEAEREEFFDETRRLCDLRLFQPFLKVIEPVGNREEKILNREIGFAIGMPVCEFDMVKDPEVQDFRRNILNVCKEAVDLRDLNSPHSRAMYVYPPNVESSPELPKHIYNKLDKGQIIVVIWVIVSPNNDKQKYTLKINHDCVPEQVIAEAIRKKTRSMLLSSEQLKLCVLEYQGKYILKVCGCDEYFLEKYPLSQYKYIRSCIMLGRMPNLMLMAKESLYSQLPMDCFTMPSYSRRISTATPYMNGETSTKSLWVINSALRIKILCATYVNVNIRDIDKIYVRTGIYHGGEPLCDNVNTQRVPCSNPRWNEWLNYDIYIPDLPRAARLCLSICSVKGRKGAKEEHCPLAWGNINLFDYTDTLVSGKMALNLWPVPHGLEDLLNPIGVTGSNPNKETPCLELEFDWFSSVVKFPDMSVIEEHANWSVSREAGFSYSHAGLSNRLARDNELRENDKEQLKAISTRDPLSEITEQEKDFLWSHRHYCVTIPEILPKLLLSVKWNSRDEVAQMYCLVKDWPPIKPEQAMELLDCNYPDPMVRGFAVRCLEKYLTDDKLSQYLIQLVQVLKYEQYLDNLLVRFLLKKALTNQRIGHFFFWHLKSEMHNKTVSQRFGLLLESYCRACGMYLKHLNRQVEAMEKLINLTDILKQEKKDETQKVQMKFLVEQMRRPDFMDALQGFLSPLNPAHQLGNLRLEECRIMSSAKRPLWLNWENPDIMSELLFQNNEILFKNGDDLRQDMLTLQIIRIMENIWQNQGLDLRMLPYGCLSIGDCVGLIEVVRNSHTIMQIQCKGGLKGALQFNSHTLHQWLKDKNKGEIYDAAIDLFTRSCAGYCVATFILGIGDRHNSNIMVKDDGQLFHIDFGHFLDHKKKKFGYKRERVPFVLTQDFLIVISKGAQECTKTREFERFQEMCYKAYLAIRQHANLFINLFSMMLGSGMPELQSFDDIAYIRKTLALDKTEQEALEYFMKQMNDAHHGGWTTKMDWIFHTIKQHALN
Description: as §1, §2

| Structure (SMILES) | IC50 [nM] |
| --- | --- |
| COc1cc(-c2cc(=O)c3c(O)cc(O)c(CC=C(C)C)c3o2)ccc1O [FBL-03G] | > 20000 |
| COc1cc(-c2cc(=O)c3c(O)c(C/C=C(\C)CCC=C(C)C)c(O)cc3o2)ccc1O [FBL-03A] | > 20000 |
| COc1ccc(-c2cc(=O)c3c(O)c(C/C=C(\C)CCC=C(C)C)c(O)cc3o2)cc1OC [FBL-03D] | > 30000 |
